Measured values: US20250326859A1, “ANTI-CANCER ANTIBODIES, COMBINATION THERAPIES, AND USES THEREOF” (PRECISION BIOLOGICS, INC., priority 2022, published 2025)

Key:
[1] = tested on: colon cancer samples; assay: IHC on paraffin tissue sections, colon cancer; format: binding, human; settings: biotinylated antibody
Description: (§1) FIG. 2. Immunohistochemistry results from cancer tissue arrays. Immunohistochemistry method (IHC) was used for determining the presence of NEO-101/102, NEO-201 and NEO-301 antigens on paraffin microarrays and tissues. These primary antibodies (NEO-101/NEO-102, NEO-201 and NEO-301) were biotinylated prior to use. Paraffin tissue Microarrays and slides of tissues were reacted with the primary Ab after inactivating endogenous peroxidase and blocking the slides. Staining was detected with streptavidin-horseradish peroxidase conjugate and visualized with chromogen. Biotinylated human IgG1 was used as negative control and mouse anti-human cytokeratin monoclonal antibody was used as positive control. Antibody staining is measured as % and intensity of tumor epithelial cells and luminal secretion within the whole tissue section.
(§2) Immunohistochemistry (IHC) was used for determining the presence of NEO-101/102, NEO-201 and NEO-301 antigens on paraffin microarrays and tissues. These primary antibodies (NEO-101/NEO-102, NEO-201 and NEO-301) were biotinylated prior to use. Paraffin tissue microarrays and slides of tissues were reacted with the primary antibody after inactivating endogenous peroxidase and blocking the slides. Staining was detected with streptavidin-horseradish peroxidase conjugate and visualized with chromogen. Biotinylated human IgG1 was used as negative control and mouse anti-human cytokeratin monoclonal antibody was used as positive control. Antibody staining was measured as % and intensity of tumor epithelial cells and luminal secretion within the whole tissue section.
(§3) The cancer cells and normal cells tested were of the following tissue origins: Colon, Pancreas, Lung, Larynx, Prostate, Esophagus, Uterus, Stomach, Skin, Breast, and Ovary.

[2] = tested on: lung squamous carcinoma cells; assay: Flow cytometry antigen expression, lung squamous cell carcinoma cell lines; format: binding, human; settings: primary antibody at 10 ug/mL; multiple lung squamous cell carcinoma cell lines
Protocol: (§4) FIG. 1. NEO-101, NEO-201 and NEO-301 Antigen Expression by Human Normal and Cancer Cell Lines. NEO-101, NEO-201 and NEO-301 specific antigen expression in various cell lines were detected by Flow Cytometry. Viable cell suspensions were incubated with primary antibody NEO-101, NEO-201 and NEO-301 separately at 10 ug/mL. Human IgG (10 ug/mL) was used as negative control. Goat anti-human IgG (Fc)-phycoerythrin conjugate was used for primary antibody detection; 7-ADD was used for excluding dead cells from analysis. The staining was measured by Flow Cytometry (Guava instrument, Millipore). Median fluorescent intensity (MFI) and % of stained cells was used for determining presence of specific antigen on each cell line.
(§5) Antigen expression in cell lines of various origins were detected by Flow Cytometry. Viable cell suspensions were incubated with primary antibody NEO-101, NEO-201 and NEO-301 separately at 10 ug/mL. Human IgG (10 ug/mL) was used as negative control. Goat anti-human IgG (Fc)-phycoerythrin conjugate was used for primary antibody detection; 7-ADD was used for excluding dead cells from analysis. The staining was measured by Flow Cytometry (Guava instrument, Millipore). Median fluorescent intensity (MFI) and % of stained cells was used for determining presence of specific antigen on each cell line. […]

[3] = tested on: lung adenocarcinoma cells; assay: Flow cytometry antigen expression, lung adenocarcinoma cell lines; format: binding, human; settings: primary antibody at 10 ug/mL; multiple lung adenocarcinoma cell lines
Protocol: as §4, §5

[4] = tested on: skin cancer samples; assay: IHC on cancer tissue microarray, skin cancer; format: binding, human; settings: biotinylated antibody
Description: as §1
(§6) Immunohistochemistry (IHC) was used for determining the presence of NEO-101/102, NEO-201 and NEO-301 antigens on paraffin microarrays and tissues. These primary antibodies (NEO-101/NEO-102, NEO-201 and NEO-301) were biotinylated prior to use. […] Staining was detected with streptavidin-horseradish peroxidase conjugate and visualized with chromogen. […] Antibody staining was measured as % and intensity of tumor epithelial cells and luminal secretion within the whole tissue section. […]

[5] = tested on: pancreatic cancer samples; assay: IHC on paraffin tissue sections, pancreatic cancer; format: binding, human; settings: biotinylated antibody
Description: as §1, §2, §3

[6] = tested on: pancreatic cancer samples; assay: IHC on cancer tissue microarray, pancreatic cancer; format: binding, human; settings: biotinylated antibody
Description: as §1, §2, §3

[7] = tested on: colorectal adenocarcinoma cells; assay: Flow cytometry antigen expression, colorectal adenocarcinoma cell lines; format: binding, human; settings: primary antibody at 10 ug/mL; multiple colorectal adenocarcinoma cell lines
Protocol: as §4
(§7) Antigen expression in cell lines of various origins were detected by Flow Cytometry. Viable cell suspensions were incubated with primary antibody NEO-101, NEO-201 and NEO-301 separately at 10 ug/mL. Human IgG (10 ug/mL) was used as negative control. Goat anti-human IgG (Fc)-phycoerythrin conjugate was used for primary antibody detection; 7-ADD was used for excluding dead cells from analysis. The staining was measured by Flow Cytometry (Guava instrument, Millipore). Median fluorescent intensity (MFI) and % of stained cells was used for determining presence of specific antigen on each cell line.
(§8) The cell lines tested included breast cancer cells, cervical squamous carcinoma cells, colorectal adenocarcinoma cells, lung adenocarcinoma cells, lung carcinoma cells, lung squamous carcinoma cells, myelogenous leukemia cells, ovarian cancer cells, pancreatic adenocarcinoma cells, pancreatic carcinoma cells, prostate adenocarcinoma cells, and prostate cancer cells. Additionally, normal lung cells were tested.

[8] = tested on: lung cancer samples; assay: IHC on cancer tissue microarray, lung cancer; format: binding, human; settings: biotinylated antibody
Description: as §1, §6

[9] = tested on: uterus cancer samples; assay: IHC on cancer tissue microarray, uterus cancer; format: binding, human; settings: biotinylated antibody
Description: as §1, §6

[10] = tested on: colon cancer samples; assay: IHC on cancer tissue microarray, colon cancer; format: binding, human; settings: biotinylated antibody
Description: as §1, §2, §3

[11] = tested on: pancreatic adenocarcinoma cells; assay: Flow cytometry antigen expression, pancreatic adenocarcinoma cell lines; format: binding, human; settings: primary antibody at 10 ug/mL
Protocol: as §4, §7, §8

[12] = tested on: lung cancer samples; assay: IHC on paraffin tissue sections, lung cancer; format: binding, human; settings: biotinylated antibody, relatively fewer samples tested
Description: as §1, §6

[13] = tested on: Human tumor xenografts; assay: In vivo localization of radiolabeled antibodies in tumor-bearing mice; design: species or system SCID or nude mice; settings: 111In or 86Y label, intravenous, paper example in present tense
Description: Antibodies NEO-101, NEO-201, and NEO-301 are radiolabeled by conjugation to either ^111In or ^86Y using the acyclic chelate CHX-A″-DTPA. The conjugation molar ratios are empirically determined. Human tumor xenografts are introduced into SCID or nude mice, including the cell lines identified in FIG. 1 as being reactive with NEO-101, NEO-201, or NEO-301 in cell culture and optionally further cancer cell lines detected to bind those antibodies. Control xenografts non-reactive with these antibodies are also utilized. Following intravenous administration of radiolabeled antibodies in tumor-bearing mice, cell samples are harvested and analyzed. Labeled antibody biodistribution is determined with respect to the tumor and other tissues including liver and kidneys.
Additionally, xenograft bearing mice are subjected to imaging studies including planar gamma-imaging performed at multiple time points to assess the stability of labeled antibody binding to the tumor cells and measure the level of accumulation of radiolabeled antibody in other tissues.

[14] = tested on: breast cancer samples; assay: IHC on cancer tissue microarray, breast cancer; format: binding, human; settings: biotinylated antibody
Description: as §1, §6

[15] = tested on: esophagus cancer samples; assay: IHC on cancer tissue microarray, esophagus cancer; format: binding, human; settings: biotinylated antibody
Description: as §1, §6

[16] = tested on: stomach cancer samples; assay: IHC on cancer tissue microarray, stomach cancer; format: binding, human; settings: biotinylated antibody
Description: as §1, §6

Molecule | cancer samples positive for the antigen [1] | antigen expression detected by flow cytometry [2] | antigen expression detected by flow cytometry [3] | cancer samples positive for the antigen [4] | cancer samples positive for the antigen [5] | cancer samples positive for the antigen [6] | antigen expression detected by flow cytometry [7] | cancer samples positive for the antigen [8] | cancer samples positive for the antigen [9] | cancer samples positive for the antigen [10] | antigen expression detected by flow cytometry [11] | cancer samples positive for the antigen [12] | binding of radiolabeled antibody to its antigen in vivo [13] | cancer samples positive for the antigen [14] | cancer samples positive for the antigen [15] | cancer samples positive for the antigen [16]
NEO-201: Humanized 16C3 antibody; binds epitopes in CEACAM5 and CEACAM6 | 94% | detected | detected | 16% | 83% | 86% | detected | 61% | 51% | 85% | detected | 90% | able to bind their respective antigens |  |  | 
NEO-301: Chimeric 31.1 antibody, 2 amino acid changes in HC constant domain, produced in high titer CHO-S cells; binds A33 antigen | 52% |  |  |  | 47% | 57% | detected | 56% |  | 87% | detected |  | able to bind their respective antigens | 78% | 43% | 
NEO-101: Chimeric NPC-1 antibody, engineered in CHO-DG44 production cell clone 4B7; targets a variant of MUC5AC (protein) light: QVVLTQSPVIMSASPGEKVTMTCSASSSISYMYWYQQKPGTSPKRWIYDTSKLASGVPARFSGSGSGTSYSLTISNMEAGDAATYYCHQRDSYPWTFGGGTNLEIK heavy: QVQLKESGPDLVAPSQSLSITCTVSGFSLSKFGVNWVRQPPGKGLEWLGVIWGDGSTSYNSGLISRLSISKENSKSQVFLKLNSLQADDTATYYCVKPGGDYWGHGTSVTVSS | 87% |  |  |  | 82% | 31% | detected |  | 41% | 61% | detected | 67% | able to bind their respective antigens |  |  | 30%
